Test results from ChEMBL document CHEMBL1201862, “PubChem BioAssay data set” (2004).
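Dose response: 5 concentrations. Exposure: 48 h. Format: 96-well plates. Endpoint: linear interpolation; highest concentration if not reached. Here, GI50 denotes the concentration required for 50% inhibition of growth.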 Activity calls are given as the source filed them. No stated cut-off is given here; in the data, active = GI50 up to about 1.1 µM and inactive = higher.

Legend:
Test in all cases: NCI tumour cell line growth inhibition, 48 h
DLD-1 = test system: DLD-1
DMS-114 = test system: DMS-114
HOP-18 = test system: HOP-18
KM-20L2 = test system: KM-20L2
M19-MEL = test system: M19-MEL
RXF 631 = test system: RXF 631
XF498 = test system: XF498
DMS-273 = test system: DMS-273
SNB-78 = test system: SNB-78

N#CC(/C(CCCC(=O)Nc1cccc([N+](=O)[O-])c1)=N/NC(=O)c1cc2ccccc2cc1O)c1ccccc1 (centres undefined)
GI50 (DLD-1): 36.7 µM (inactive) | GI50 (DMS-114): 20.2 µM (inactive) | GI50 (HOP-18): 18.3 µM (inactive) | GI50 (KM-20L2): 38 µM (inactive) | GI50 (M19-MEL): 17.9 µM (inactive) | GI50 (RXF 631): 29.8 µM (inactive) | GI50 (XF498): 25 µM (inactive)

O=C1C[C@H](c2ccc(O)c(O)c2)Oc2cc(O)cc(O)c21
GI50 (DLD-1): > 100 µM (inactive) | GI50 (DMS-114): 21.2 µM (inactive) | GI50 (DMS-273): > 100 µM (inactive) | GI50 (HOP-18): > 100 µM (inactive) | GI50 (KM-20L2): > 100 µM (inactive) | GI50 (M19-MEL): > 100 µM (inactive) | GI50 (RXF 631): 64.4 µM (inactive) | GI50 (SNB-78): > 100 µM (inactive)

CN(C)c1nc(N(C)C)sc(=O)n1
GI50 (DLD-1): > 100 µM (inactive) | GI50 (DMS-114): > 100 µM (inactive) | GI50 (DMS-273): > 100 µM (inactive) | GI50 (HOP-18): > 100 µM (inactive) | GI50 (KM-20L2): > 100 µM (inactive) | GI50 (M19-MEL): > 100 µM (inactive) | GI50 (XF498): > 100 µM (inactive)

CC(=O)C1=C(C)NC2C=CC=CN12 (centres undefined)
GI50 (DLD-1): > 100 µM (inactive) | GI50 (DMS-114): > 100 µM (inactive) | GI50 (DMS-273): > 100 µM (inactive) | GI50 (HOP-18): > 100 µM (inactive) | GI50 (KM-20L2): > 100 µM (inactive) | GI50 (M19-MEL): > 100 µM (inactive) | GI50 (SNB-78): > 100 µM (inactive) | GI50 (XF498): > 100 µM (inactive)

Cc1ccc(NC(=O)C(=O)C(C#N)c2ccccc2C)cc1C (centres undefined)
GI50 (DLD-1): 52.4 µM (inactive) | GI50 (DMS-114): > 41.7 µM (inactive) | GI50 (DMS-273): > 71.6 µM (inactive) | GI50 (HOP-18): > 100 µM (inactive) | GI50 (KM-20L2): > 79.8 µM (inactive) | GI50 (SNB-78): > 100 µM (inactive) | GI50 (XF498): > 100 µM (inactive)

O/N=C1/C(=C/c2ccc(Oc3ccccc3)cc2)CCCC1C(NO)c1ccc(Oc2ccccc2)cc1 (centres undefined)
GI50 (DLD-1): 66.1 µM (inactive) | GI50 (DMS-114): 26.4 µM (inactive) | GI50 (DMS-273): 28.6 µM (inactive) | GI50 (HOP-18): > 100 µM (inactive) | GI50 (KM-20L2): 11.2 µM (inactive) | GI50 (M19-MEL): 39.6 µM (inactive) | GI50 (RXF 631): 33.2 µM (inactive) | GI50 (SNB-78): 34.8 µM (inactive) | GI50 (XF498): 29.7 µM (inactive)

O=C1C=C(O)c2nc(O)ccc2C1=O
GI50 (DLD-1): > 100 µM (inactive) | GI50 (DMS-273): > 100 µM (inactive) | GI50 (KM-20L2): > 100 µM (inactive) | GI50 (M19-MEL): > 100 µM (inactive) | GI50 (SNB-78): > 100 µM (inactive) | GI50 (XF498): > 100 µM (inactive)

CCS/C(=N\c1ccccc1)SC
GI50 (DLD-1): > 100 µM (inactive) | GI50 (DMS-114): > 100 µM (inactive) | GI50 (DMS-273): > 100 µM (inactive) | GI50 (HOP-18): > 100 µM (inactive) | GI50 (KM-20L2): > 100 µM (inactive) | GI50 (M19-MEL): > 100 µM (inactive) | GI50 (RXF 631): > 100 µM (inactive) | GI50 (SNB-78): > 100 µM (inactive) | GI50 (XF498): > 100 µM (inactive)

COc1cc2c(cc1OC)C(C(CBr)CBr)N(C1CCCC1)CC2 (centres undefined)
GI50 (DLD-1): > 100 µM (inactive) | GI50 (DMS-273): > 100 µM (inactive) | GI50 (KM-20L2): 1.46 µM (inactive) | GI50 (M19-MEL): > 100 µM (inactive) | GI50 (SNB-78): > 10 µM (inactive) | GI50 (XF498): > 100 µM (inactive)

COc1cccc2ccc(C(=O)c3ccccc3)nc12
GI50 (DLD-1): > 100 µM (inactive) | GI50 (DMS-273): > 100 µM (inactive) | GI50 (KM-20L2): > 100 µM (inactive) | GI50 (SNB-78): > 100 µM (inactive) | GI50 (XF498): > 100 µM (inactive)

COc1ccc(CC#C/C=C/C(=O)NCC(C)C)cc1
GI50 (DLD-1): > 100 µM (inactive) | GI50 (DMS-114): > 100 µM (inactive) | GI50 (DMS-273): > 100 µM (inactive) | GI50 (HOP-18): > 100 µM (inactive) | GI50 (KM-20L2): > 100 µM (inactive) | GI50 (M19-MEL): > 100 µM (inactive) | GI50 (SNB-78): > 100 µM (inactive) | GI50 (XF498): > 100 µM (inactive)

COC(=O)N/N=C/c1oc(-c2ccccc2)c(-c2ccccc2)c1[N+](=O)[O-]
GI50 (DLD-1): > 100 µM (inactive) | GI50 (DMS-114): > 100 µM (inactive) | GI50 (DMS-273): > 100 µM (inactive) | GI50 (KM-20L2): > 100 µM (inactive) | GI50 (M19-MEL): > 100 µM (inactive) | GI50 (RXF 631): > 100 µM (inactive) | GI50 (SNB-78): > 100 µM (inactive) | GI50 (XF498): > 100 µM (inactive)

CC(=O)OC1COC(N2C(=O)C(=O)c3ccccc32)C(OC(C)=O)C1OC(C)=O (centres undefined)
GI50 (DLD-1): > 100 µM (inactive) | GI50 (DMS-114): > 100 µM (inactive) | GI50 (DMS-273): > 100 µM (inactive) | GI50 (KM-20L2): > 100 µM (inactive) | GI50 (M19-MEL): 34.8 µM (inactive) | GI50 (RXF 631): > 100 µM (inactive) | GI50 (SNB-78): > 100 µM (inactive)

COc1ccc(C(c2c(O)c3ccccc3n(-c3ccccc3)c2=O)c2c(O)c3ccccc3n(-c3ccccc3)c2=O)cc1
GI50 (DLD-1): > 100 µM (inactive) | GI50 (DMS-114): > 100 µM (inactive) | GI50 (DMS-273): > 100 µM (inactive) | GI50 (HOP-18): > 100 µM (inactive) | GI50 (KM-20L2): > 100 µM (inactive) | GI50 (M19-MEL): > 100 µM (inactive) | GI50 (SNB-78): > 100 µM (inactive) | GI50 (XF498): 59.3 µM (inactive)

CCCN(CCC)C1=Nc2ccccc2-n2cnnc2C1
GI50 (DMS-114): > 100 µM (inactive) | GI50 (DMS-273): > 100 µM (inactive) | GI50 (KM-20L2): > 100 µM (inactive) | GI50 (M19-MEL): > 100 µM (inactive) | GI50 (SNB-78): > 100 µM (inactive) | GI50 (XF498): > 100 µM (inactive)

COC1=CC(C2c3cc4c(cc3[C@@H](Nc3ccc([N+](=O)[O-])cc3)C3COC(=O)[C@H]23)OCO4)=CC(=O)C1=O (some centres undefined)
GI50 (DLD-1): 14 µM (inactive) | GI50 (DMS-114): 2.57 µM (inactive) | GI50 (DMS-273): 0.697 µM (active) | GI50 (HOP-18): 53.6 µM (inactive) | GI50 (KM-20L2): 9.1 µM (inactive) | GI50 (M19-MEL): 6.4 µM (inactive) | GI50 (RXF 631): 2.29 µM (inactive) | GI50 (SNB-78): 28 µM (inactive) | GI50 (XF498): 5.5 µM (inactive)

CC(=O)NCc1c(C(N)=O)ncn1Cc1ccccc1
GI50 (DMS-114): > 100 µM (inactive) | GI50 (DMS-273): > 100 µM (inactive) | GI50 (HOP-18): > 100 µM (inactive) | GI50 (KM-20L2): > 100 µM (inactive) | GI50 (M19-MEL): > 100 µM (inactive) | GI50 (RXF 631): > 100 µM (inactive) | GI50 (SNB-78): > 100 µM (inactive) | GI50 (XF498): > 100 µM (inactive)

C#C[C@@]1(O)CCCC2=CC(=O)C[C@]21C
GI50 (DLD-1): > 100 µM (inactive) | GI50 (DMS-114): > 100 µM (inactive) | GI50 (HOP-18): > 100 µM (inactive) | GI50 (M19-MEL): > 100 µM (inactive) | GI50 (XF498): > 100 µM (inactive)

COc1ccc(/C=C2/CSC/C(=C/c3ccc(OC)c(OC)c3)C2=O)cc1OC
GI50 (DLD-1): 0.46 µM (active) | GI50 (DMS-273): 1.03 µM (active) | GI50 (HOP-18): 6.65 µM (inactive) | GI50 (KM-20L2): 2.3 µM (inactive) | GI50 (M19-MEL): 2.14 µM (inactive) | GI50 (RXF 631): 1.99 µM (inactive) | GI50 (SNB-78): 2.12 µM (inactive) | GI50 (XF498): 11.7 µM (inactive)

COC(=O)C[S+]([O-])c1ccccc1 (centres undefined)
GI50 (DLD-1): 29.1 µM (inactive) | GI50 (DMS-114): 20.8 µM (inactive) | GI50 (DMS-273): 28.9 µM (inactive) | GI50 (M19-MEL): 30.5 µM (inactive) | GI50 (SNB-78): 33.5 µM (inactive) | GI50 (XF498): 76.7 µM (inactive)

O=Nc1ccc(O)c2ncccc12
GI50 (DLD-1): 9.57 µM (inactive) | GI50 (DMS-114): 3.9 µM (inactive) | GI50 (DMS-273): 2.55 µM (inactive) | GI50 (HOP-18): 11.3 µM (inactive) | GI50 (KM-20L2): 23.9 µM (inactive) | GI50 (M19-MEL): 4.25 µM (inactive) | GI50 (SNB-78): 2.43 µM (inactive)

O=C1c2ccccc2C(=O)N1C/C=N/NS(=O)(=O)c1ccc2ccccc2c1
GI50 (DLD-1): > 100 µM (inactive) | GI50 (DMS-273): > 100 µM (inactive) | GI50 (HOP-18): > 100 µM (inactive) | GI50 (KM-20L2): > 100 µM (inactive) | GI50 (M19-MEL): > 100 µM (inactive) | GI50 (RXF 631): > 100 µM (inactive) | GI50 (SNB-78): > 100 µM (inactive) | GI50 (XF498): > 100 µM (inactive)

O=C(NN1C(=O)C(Cl)C1c1ccc(O)cc1)c1ccccc1O (centres undefined)
GI50 (DLD-1): 15.8 µM (inactive) | GI50 (DMS-114): 14 µM (inactive) | GI50 (DMS-273): 12.9 µM (inactive) | GI50 (HOP-18): 15.9 µM (inactive) | GI50 (M19-MEL): 21.7 µM (inactive) | GI50 (SNB-78): 21.7 µM (inactive) | GI50 (XF498): 11.1 µM (inactive)

CCCC(C)NC1=C(NC(C)=O)C(=O)c2ccccc2C1=O (centres undefined)
GI50 (DLD-1): > 100 µM (inactive) | GI50 (DMS-273): > 100 µM (inactive) | GI50 (KM-20L2): > 100 µM (inactive) | GI50 (M19-MEL): 62.7 µM (inactive) | GI50 (SNB-78): > 100 µM (inactive) | GI50 (XF498): > 100 µM (inactive)

CC1=C(CO)C(=O)O[C@@H]([C@@H](C)[C@H]2CC[C@H]3[C@@H]4C[C@H]5O[C@]56[C@@H](O)C=CC(=O)[C@]6(C)[C@H]4CC[C@]23C)C1 [WITHAFERIN A]
GI50 (DLD-1): 0.303 µM (active) | GI50 (DMS-114): 0.478 µM (active) | GI50 (DMS-273): 0.405 µM (active) | GI50 (KM-20L2): 0.392 µM (active) | GI50 (M19-MEL): 1.5 µM (inactive) | GI50 (XF498): 1.43 µM (inactive)
